Measured values from patent US9340532B2, “Methods and compositions for inhibiting CNKSR1” (PHUSIS THERAPEUTICS, INC., priority 2012, dated 2016).
pIC50, pKd: −log10 of the molar value. Where two headings read alike, the source gives them in different places.

Columns and labels:
CNK1 PH-domain (CNKSR1) = target: T1, CNK1 PH-domain (CNKSR1) (Homo sapiens, UniProt Q969H4); test: SPR binding assay (Biacore T100), CNK1 PH-domain
T1 construct: The PH-domain His-fusion proteins (CNK1 and AKT1) were expressed and immobilized on a NTA chip; made in house
T1 sequence (Q969H4 403-502 limits assumed): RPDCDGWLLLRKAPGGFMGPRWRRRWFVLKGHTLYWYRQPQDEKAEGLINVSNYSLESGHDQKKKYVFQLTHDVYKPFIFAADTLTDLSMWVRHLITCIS
Method: (§1) All interaction analyses were done with a Biacore T100 Control Software v3.2, and BIAevaluation v4.1 analysis software (Biacore). The PH-domain His-fusion proteins (CNK1 and AKT1) were expressed and immobilized on a NTA chip to a level of 10,000 response units or less. Small molecule analytes at concentrations ranging from 50 μM to 0.010 μM were injected at a high flow rate (30 μL/min) DMSO concentrations in all samples and running buffer were 1-5% (v/v).
Other docking was performed using modeling algorithms with state-of-the-art commercial drug discovery software (Schrodinger suite). […] Additionally, ligand-based approaches provided an alternative to structure based drug discovery. Ligand-based virtual screening methodologies can take into account shape and electrostatics (like ROCS) and the pharmacophoric features (acceptor, donor, hydrophobic, aromatic, etc.) of its functional groups. […] SPR interaction analyses of all other compounds was undertaken using a Biacore T100 with Control and Evaluation software kit.

[1] = tested on: A549 (KRAS mutant cell line); test: Proliferation Assay A549; assay type: cell-based; conditions: Homo sapiens, N = 2 experiments
Method: (§2) The isogenic KRAS lines harboring G12D, G12C, and G12V were obtained from Horizon Discovery labs on a one year lease. These cells were cultured in McCoys media with 10% FBS to 80% confluency. Cells were then released from flasks via trypsinization and plated into 96-well plates at an initial density range of 2000 cells per well. Cells were allowed 24 hours to attach, and then the agents were added to the culture media at a range of concentrations from 0-100 μM. Cells were incubated for 72 hours with the drugs, and then viability was assessed using an MTS viability assay. Cells were exposed to MTS reagent (Promega) dissolved in PBS (Hyclone) at a concentration of 200 μL reagent/mL media for 2 hours. Absorbance was then read at 490 nm, and viability was expressed as a percentage normalized between the negative control (no cells plated) and the condition of cells with no drug added (100% viability) normalized as the upper limit of viability.
(§3) Our panel of 30 cell lines and an extensive characterization were obtained from Dr. John Minna (UTSW). All cell lines were cultured in RPMI 1640 with 10% FBS. Cells were treated with concentrations of agents at concentrations 0.01 to 50 μM and evaluated as described above. IC50's were determined using Excelfit.

[2] = tested on: H1373 (KRAS mutant cell line); test: Proliferation Assay H1373; assay type: cell-based; conditions: Homo sapiens, NCI-H1373, N = 2 experiments
Method: as §2, §3

[3] = tested on: H1975 (KRAS wildtype cell line); test: Proliferation Assay H1975; assay type: cell-based; conditions: Homo sapiens, NCI-H1975, n = 1
Method: as §2, §3

[4] = tested on: H226 (KRAS wildtype cell line); test: Proliferation Assay H226; assay type: cell-based; conditions: Homo sapiens, NCI-H226, n = 1
Method: as §2, §3

AKT1 PH-domain = target: T2, AKT1 PH-domain (Homo sapiens, UniProt P31749); test: SPR binding assay (Biacore T100), AKT1 PH-domain; conditions: for pKd: read-out: AKT KD
T2 construct: The PH-domain His-fusion proteins (CNK1 and AKT1) were expressed and immobilized on a NTA chip; made in house
T2 sequence (P31749 5-108 limits assumed): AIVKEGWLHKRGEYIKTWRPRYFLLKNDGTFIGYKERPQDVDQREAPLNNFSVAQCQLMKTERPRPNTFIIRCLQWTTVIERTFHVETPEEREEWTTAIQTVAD
Method: as §1
A commercially available docking package, GOLD (GOLD [3.2], CCDC: Cambridge, UK, 2007) was used to evaluate the docking of compounds 1-7 into the binding pocket, see e.g. Table 5. Other docking was performed using modeling algorithms with state-of-the-art commercial drug discovery software (Schrodinger suite). GLIDE was chosen as the docking algorithm used to select and optimize compounds, providing a GlideScore as a rough estimate of binding affinity that was used to rank and select the best compounds. Additionally, ligand-based approaches provided an alternative to structure based drug discovery. Ligand-based virtual screening methodologies can take into account shape and electrostatics (like ROCS) and the pharmacophoric features (acceptor, donor, hydrophobic, aromatic, etc.) of its functional groups. Inositol tetraphosphate (IP4) binding to the PH-domain of CNKSR1 provided a good starting point for shape screening. Both structure-based and ligand-based approaches were used to find novel compounds (Table 7) and to refine and improve lead compounds (Tables 8, and 9). SPR interaction analyses for Compounds 1 through 7 were performed with a Biacore 2000, using Biacore2000 Control Software v3.2 and BIAevaluation v4.1 analysis software (Biacore) as described in Mol Cancer Ther 7:2621 (2008). SPR interaction analyses of all other compounds was undertaken using a Biacore T100 with Control and Evaluation software kit.

| Structure (SMILES) | Surface Plasmon Resonance CNKSR1 binding (RU max) (CNK1 PH-domain (CNKSR1); date 11 26 13) [RU * 100/Da] | Surface Plasmon Resonance CNKSR1 stability (RU max post-injection) (CNK1 PH-domain (CNKSR1); date 11 26 13) [RU * 100/Da] | Surface Plasmon Resonance CNKSR1 binding (RU max) (CNK1 PH-domain (CNKSR1); date 12 09 13) [RU * 100/Da] | Surface Plasmon Resonance CNKSR1 stability (RU max post-injection) (CNK1 PH-domain (CNKSR1); date 12 09 13) [RU * 100/Da] | pIC50 [1] | pIC50 [2] | pIC50 [3] | pIC50 [4] | pKd (CNK1 PH-domain (CNKSR1); Table 6, read-out: CNKS KD) | pKd (CNK1 PH-domain (CNKSR1); Table 8, read-out: CNK KD) | pKd (AKT1 PH-domain; Table 8) | AKT KD (AKT1 PH-domain; Table 7, curated diversity set) | AKT KD (AKT1 PH-domain; Table 8) |
| --- | --- | --- | --- | --- | --- | --- | --- | --- | --- | --- | --- | --- | --- |
| Cc1ccc(-c2csc(Cn3nc(CC4CN=CCO4)c4ccccc4c3=O)n2)cc1 (centres unmarked) [Compound 80] |  |  |  |  |  |  |  |  | < 4.00 |  |  |  |  |
| Nc1cccc(-c2cc(C(=O)O)c3cc(Cl)ccc3n2)c1 [Compound 66] |  |  |  |  |  |  |  |  |  |  |  | Bound |  |
| Cc1c(Cl)ccc2c(C(=O)O)cc(-c3cccnc3)nc12 [Compound 64] |  |  |  |  |  |  |  |  |  |  |  | Bound |  |
| COc1c(/C=C/C(=O)O)cc(NS(=O)(=O)c2cccs2)c2c1OCO2 [Compound 84, (E)-3-(4-methoxy-7-(thiophene-2-sulfonamido)benzo[d][1,3]dioxol-5-yl)acrylic acid] |  |  |  |  | < 4.00 | < 4.00 | < 4.00 | < 4.00 |  |  |  |  | No binding |
| Cc1ccc(-c2csc(Cn3nc(CC(=O)NCC(N)=O)c4ccccc4c3=O)n2)cc1 [Compound 82] |  |  | 1.304 | 0.544 | 4.29 | 4.19 | 4.15 | < 4.00 |  |  |  |  |  |
| O=C(O)/C=C/c1cc(NS(=O)(=O)c2cccs2)c2c(c1O)OCO2 [Compound 89, (E)-3-(4-hydroxy-7-(thiophene-2-sulfonamido)benzo[d][1,3]dioxol-5-yl)acrylic acid] |  |  | 1.350 | 1.401 | < 4.00 | < 4.00 | < 4.00 | < 4.00 |  | 5.47 |  |  |  |
| CN1CC(=O)N(/C=C/c2cc(NS(=O)(=O)c3cccs3)c3c(c2O)OCO3)C1=O [Compound 91] | −1.867 | 0.288 |  |  | < 4.00 | < 4.00 | < 4.00 | < 4.00 |  |  |  |  |  |
| Cc1ccc(-c2csc(Cn3nc(CC(=O)NCCC(N)=O)c4ccccc4c3=O)n2)cc1 [Compound 81] |  |  | 0.316 | 0.154 | 4.00 | 4.02 | 4.10 | < 4.00 | 3.96 |  |  |  |  |
| O=C(O)CCc1cc(NS(=O)(=O)c2cccs2)c2c(c1O)OCO2 [Compound 90, 3-(4-hydroxy-7-(thiophene-2-sulfonamido)benzo[d][1,3]dioxol-5-yl)propanoic acid] |  |  | −7.809 | −3.766 | < 4.00 | < 4.00 | < 4.00 | < 4.00 |  |  |  |  |  |
| COc1ccc(OC)c(-c2cc(C(=O)O)c3nc(C)[nH]c3n2)c1 [Compound 34] |  |  |  |  |  |  |  |  |  |  |  | Bound |  |
| O=C(O)CCc1ccc(-c2ccc(Br)cc2)n1CCC(=O)O [Compound 67] |  |  |  |  |  |  |  |  |  |  |  | Bound |  |

Other lines, results leading:

| Surface Plasmon Resonance CNKSR1 binding (RU max) (CNK1 PH-domain (CNKSR1); date 11 26 13) [RU * 100/Da] | Surface Plasmon Resonance CNKSR1 stability (RU max post-injection) (CNK1 PH-domain (CNKSR1); date 11 26 13) [RU * 100/Da] | Surface Plasmon Resonance CNKSR1 binding (RU max) (CNK1 PH-domain (CNKSR1); date 12 09 13) [RU * 100/Da] | Surface Plasmon Resonance CNKSR1 stability (RU max post-injection) (CNK1 PH-domain (CNKSR1); date 12 09 13) [RU * 100/Da] | pIC50 [1] | pIC50 [2] | pIC50 [3] | pIC50 [4] | pKd (CNK1 PH-domain (CNKSR1); Table 6, read-out: CNKS KD) | pKd (CNK1 PH-domain (CNKSR1); Table 8, read-out: CNK KD) | pKd (AKT1 PH-domain; Table 8) | AKT KD (AKT1 PH-domain; Table 7, curated diversity set) | AKT KD (AKT1 PH-domain; Table 8) | Structure (SMILES) |
| --- | --- | --- | --- | --- | --- | --- | --- | --- | --- | --- | --- | --- | --- |
| 1.409 | 0.456 | −0.541 | −0.304 | < 4.00 | < 4.00 | < 4.00 | < 4.00 |  |  |  |  |  | CN1CC(=O)N(/C=C/c2cc(N(S(=O)(=O)c3cccs3)S(=O)(=O)c3cccs3)c3c(c2O)OCO3)C1=O [Compound 128] |
|  |  | 2.132 | 2.049 | 4.22 | 4.09 | < 4.00 | 4.12 |  | 5.81 | 5.32 |  |  | COc1cc(NS(=O)(=O)c2cccs2)c(SC)c(/C=C/C(=O)O)c1O [Compound 104, (2E)-3-[2-hydroxy-3-methoxy-6-(methylsulfanyl)-5-(thiophene-2-sulfonamido)phenyl]prop-2-enoic acid] |
|  |  | −0.174 | −0.083 | 4.35 | 4.35 | 4.02 | 4.22 |  | 3.90 | 3.54 |  |  | CCOC(=O)/C=C/c1c(O)c(OC)cc(N)c1SC [Compound 107, ethyl (E)-3-(5-amino-2-hydroxy-3-methoxy-6-methylsulfanylphenyl)prop-2-enoate] |
| −1.240 | −0.026 |  |  | < 4.00 | < 4.00 | < 4.00 | < 4.00 |  |  |  |  |  | O=C1COC(=O)N1/C=C/c1cc(NS(=O)(=O)c2cccs2)c2c(c1O)OCO2 [Compound 100] |
| −0.133 | −0.041 |  |  |  |  |  |  |  |  |  |  |  | CCOC(=O)/C=C/c1cc(NS(=O)(=O)c2cccs2)c2c(c1OC)OCO2 [Compound 129] |
|  |  | −0.166 | −0.031 | 4.57 | 4.80 | 4.57 | 4.72 |  |  |  |  |  | Cc1ccc(-c2csc(Cn3nc(CC(O)CN)c4ccccc4c3=O)n2)cc1 (centres unmarked) [Compound 126] |
|  |  | 3.050 | 2.868 | < 4.00 | < 4.00 | < 4.00 | < 4.00 |  |  |  |  |  | Cc1ccc(-c2csc(Cn3nc(CC(=O)NS(C)(=O)=O)c4ccccc4c3=O)n2)cc1 [Compound 127] |
|  |  | −0.380 | −0.127 | 4.42 | 4.22 | 4.40 | 4.19 |  |  |  |  |  | Cc1ccc(-c2csc(Cn3nc(CC(O)C[N+](=O)[O-])c4ccccc4c3=O)n2)cc1 (centres unmarked) [Compound 125] |
| −1.537 | −0.123 |  |  | < 4.00 | < 4.00 | < 4.00 | 4.02 |  |  |  |  |  | COc1cc(NS(=O)(=O)c2cccs2)c(SC)c(/C=C/N2C(=O)COC2=O)c1O [Compound 133] |
| 0.457 | 0.906 |  |  | 4.14 | 4.22 | < 4.00 | 4.22 |  |  |  |  |  | COc1cc(NS(=O)(=O)c2cccs2)c(SC)c(/C=C/N2C(=O)CN(C)C2=O)c1O [Compound 132] |
|  |  | −0.369 | −0.053 | 4.30 | 4.30 | < 4.00 | 4.02 |  |  |  |  |  | Cc1ccc(-c2csc(Cn3nc(C4OC5CCOC54)c4ccccc4c3=O)n2)cc1 (centres unmarked) [Compound 124] |
